Assay results taken from PubChem BioAssay (NCI).
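Each compound was tested at five concentrations against cells in 96-well plates for 48 hours. GI50 = concentration required for 50% inhibition of growth. TGI marks complete inhibition of growth.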

Assays:
Assay in all cases: NCI-60 cell line screen, 48 h
SF-295 CNS = tested on: SF-295 CNS
RXF 393 renal = tested on: RXF 393 renal
UACC-257 melanoma = tested on: UACC-257 melanoma
K-562 leukemia = tested on: K-562 leukemia
KM12 colon = tested on: KM12 colon
OVCAR-5 ovarian = tested on: OVCAR-5 ovarian
T-47D breast = tested on: T-47D breast
NCI-H460 lung = tested on: NCI-H460 lung
CAKI-1 renal = tested on: CAKI-1 renal
A498 renal = tested on: A498 renal

Row | Structure (SMILES) | GI50 (SF-295 CNS) [nM] | TGI (SF-295 CNS) [µM] | GI50 (RXF 393 renal) [nM] | TGI (RXF 393 renal) [µM] | GI50 (UACC-257 melanoma) [µM] | TGI (UACC-257 melanoma) [µM] | GI50 (K-562 leukemia) [µM] | TGI (K-562 leukemia) [µM] | GI50 (KM12 colon) [µM] | TGI (KM12 colon) [µM] | GI50 (OVCAR-5 ovarian) [nM] | TGI (OVCAR-5 ovarian) [µM] | GI50 (T-47D breast) [nM] | TGI (T-47D breast) [µM] | GI50 (NCI-H460 lung) [nM] | TGI (NCI-H460 lung) [µM] | GI50 (CAKI-1 renal) [nM] | TGI (CAKI-1 renal) [µM] | GI50 (A498 renal) [nM] | TGI (A498 renal) [µM]
1 | COc1ccc2[nH]c(=O)c(/C=C/C(=O)/C=C/c3ccc(O)c(OC)c3)cc2c1 | 2360 | 7.36 | 1500 | 2.9 | 1.58 | 3.09 | 1.35 | > 100 | 1.08 | 2.66 | 1880 | 3.66 | 2630 | 13.9 | 2040 | 5 | 1710 | 3.1 | – | –
2 | CO/N=C(/COc1c(-c2ccccc2)oc2ccccc2c1=O)c1ccc(OC)cc1 | > 100000 | > 100 | > 100000 | > 100 | > 100 | > 100 | 42.5 | > 100 | 56.1 | > 100 | > 100000 | > 100 | 26900 | > 100 | – | – | > 100000 | > 100 | 32900 | > 100
3 | Cc1ccc(N=Nc2c(N)nn(-c3ccccc3)c2N)cc1 | 1830 | > 57.1 | 2900 | > 100 | 42.9 | > 100 | 0.256 | – | 0.626 | > 100 | – | – | 1740 | > 100 | 1070 | > 100 | 1280 | > 23.1 | 1950 | > 28.7
4 | CCCCCCCCCCCC[n+]1ccccc1 | 1390 | 4.1 | 738 | 3.87 | 1.23 | 3.97 | 0.415 | 11.4 | 1.12 | 2.87 | 1570 | 7.67 | 936 | 11.2 | 1760 | 4.58 | – | – | 1570 | 7.48
5 | O=C(Nc1ccccc1)NS(=O)(=O)c1ccc(N2N=C3c4ccccc4CC3C2c2ccccn2)cc1 (centres undefined) | 20600 | 50 | 45300 | > 100 | 26.6 | 76.6 | 26.7 | 65.6 | 24.8 | 88.7 | 26800 | 97.9 | 93000 | > 100 | 38500 | > 100 | 26400 | 90.2 | – | –
6 | CC(=O)OC1CCC2(C)C(CCC3C4CC=C(C(C)=O)C4(C)OC(=O)CC32)C1 (centres undefined) | – | – | 1150 | 2.51 | 1.42 | 2.98 | 3.35 | 10.3 | 9.83 | 22.7 | 2750 | 7.63 | 1640 | 3.4 | 5020 | 19.3 | 2540 | 9 | 6590 | 19.9
7 | Cc1ncc(C(=O)Nc2ccc(CN3CCN(C)CC3)c(C(F)(F)F)c2)cc1C#Cc1cnc(N)c2ncccc12 | 1260 | 10.6 | 98.4 | 1.49 | 0.128 | 2.55 | – | – | – | 1.33 | 807 | 2.81 | 5360 | 27.4 | 86.9 | 2.15 | 71.9 | 1.46 | 228 | 2.38
8 | COc1ccc(/C=C/C(=O)c2ccc3cc(OC)c(OC)cc3c2)cc1OC | – | – | 2820 | 8.15 | 6.14 | 22.6 | 3.02 | > 100 | 2.69 | 7.95 | 4810 | > 100 | 2930 | 33.5 | 3350 | 12.5 | 4290 | 65.4 | 2660 | 23.1
9 | O=Cc1ccc(Oc2c3ccccc3nc3occc23)cc1 | 14400 | 36.8 | 2320 | 9.17 | 12.2 | 30.1 | 22.6 | > 100 | 8.79 | 25.4 | 18600 | 89.7 | 11400 | 36.3 | 20200 | 48.2 | 12700 | 30.2 | – | –
10 | OCCNc1ncnc2c1ncn2C1OC(CO)C(O)C1O (centres undefined) | – | > 100 | – | > 100 | – | > 100 | – | – | – | > 100 | – | > 100 | – | > 100 | – | > 100 | – | > 100 | – | > 100
